Where two headings read alike, the source gives them in different places.
System: GKI (PPTG_18934)
Conditions: pH 8.0, phosphate buffer

| SMILES | Km (read-out: Km / ATP, co-substrate glucose) [µM] | Km (read-out: Km / Glucose, substrate inhibition at glucose >= 1 mM) [µM] |
| --- | --- | --- |
| Nc1ncnc2c1ncn2[C@@H]1O[C@H](COP(=O)(O)OP(=O)(O)OP(=O)(O)O)[C@@H](O)[C@H]1O [ATP] | 700 ± 50 |  |
| OC[C@H]1OC(O)[C@H](O)[C@@H](O)[C@@H]1O (some centres unmarked) [Glucose] |  | 40.5 ± 5 |
